Experiment: Effect of autoclave sterilization on final drug concentration in silicone sleeve
Format: physicochemical
Details: rifampin in silicone sleeve, starting concentration about 0.0738 wt %, autoclave about 30 minutes
Experimental: FIG. 18 illustrates the effect of sterilization on the final drug concentration, showing the degradation rate versus autoclave time, for example, with a starting concentration of about 0.0738 wt % rifampin in the silicone and running the autoclave about 30 minutes will result in a final concentration of about 0.054 wt % rifampin in the silicone sleeve.
The term “weight percent” or “wt %” means the ratio of the drug weight to the weight of the biocompatible matrix, e.g., the silicone after sterilization, for example, an initial concentration of rifampin of about 0.0738 wt % with about a 30 minute autoclave time will result in a final wt % of about 0.054 in the sterilized product. Other than where expressly indicated, all numbers expressing amounts of materials, concentrations, quantified properties of materials, and so forth, stated in the specification and claims are to be understood as being modified in all instances by the term “about” or “approximately”.

- final concentration after autoclave sterilization: about 0.054 wt %
SMILES: CO[C@H]1/C=C/O[C@@]2(C)Oc3c(C)c(O)c4c(O)c(c(/C=N/N5CCN(C)CC5)c(O)c4c3C2=O)NC(=O)/C(C)=C\C=C\[C@H](C)[C@H](O)[C@@H](C)[C@@H](O)[C@@H](C)[C@H](OC(C)=O)[C@@H]1C [rifampin]
